Reference: PubChem BioAssay AID192 (DTP/NCI, 2004)
Where “and” joins values, the source holds several entries; their conditions need not be identical. Identical values can stand only once. Inconclusive results and toxic doses are left out. Rule for the calls: active = survival T/C of 150% or more; inactive = T/C below 125% in these data. Peptide text beside a SMILES is read from it. * marks the point of attachment. Cbz = O=C(OCc1ccccc1)*

Test system: BDF1 mice, B16 melanoma ip, median survival T/C
Assay: NCI In Vivo Anticancer Drug Screen. Data for tumor model B16 Melanoma (intraperitoneal) in B6D2F1 (BDF1) mice
Conditions: endpoint: median survival time, higher = longer survival
Procedure, shortened: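 Tumor-bearing mice received test compound or vehicle. Survival or tumor size was then measured in both groups. The treated-group figure was divided by the control-group figure.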

[1] = dose: 50.0 mg/kg/injection, schedule: Q01DX009 (ip), vehicle: saline with Tween-80
[2] = dose: 100.0 mg/kg/injection, schedule: Q01DX009 (ip), vehicle: saline with Tween-80
[3] = dose: 200.0 mg/kg/injection, schedule: Q01DX009 (ip), vehicle: saline with Tween-80
[4] = dose: 400.0 mg/kg/injection, schedule: Q01DX009 (ip), vehicle: saline with Tween-80
[5] = dose: 100.0 mg/kg/injection, schedule: Q01DX009 (ip), vehicle: Klucel (hydroxypropylcellulose) (HPC)
[6] = dose: 200.0 mg/kg/injection, schedule: Q01DX009 (ip), vehicle: Klucel (hydroxypropylcellulose) (HPC)
[7] = dose: 400.0 mg/kg/injection, schedule: Q01DX009 (ip), vehicle: Klucel (hydroxypropylcellulose) (HPC)
[8] = dose: 12.5 mg/kg/injection, schedule: Q01DX009 (ip), vehicle: saline with Tween-80
[9] = dose: 25.0 mg/kg/injection, schedule: Q01DX009 (ip), vehicle: saline with Tween-80
[10] = dose: 1.0 mg/kg/injection, schedule: Q01DX009 (ip), vehicle: saline
[11] = dose: 2.0 mg/kg/injection, schedule: Q01DX009 (ip), vehicle: saline
[12] = dose: 12.5 mg/kg/injection, schedule: Q01DX009 (ip), vehicle: Klucel (hydroxypropylcellulose) (HPC)
[13] = dose: 25.0 mg/kg/injection, schedule: Q01DX009 (ip), vehicle: Klucel (hydroxypropylcellulose) (HPC)
[14] = dose: 3.12 mg/kg/injection, schedule: Q01DX009 (ip), vehicle: saline
[15] = dose: 6.25 mg/kg/injection, schedule: Q01DX009 (ip), vehicle: saline
[16] = dose: 12.5 mg/kg/injection, schedule: Q01DX009 (ip), vehicle: saline
[17] = dose: 25.0 mg/kg/injection, schedule: Q01DX009 (ip), vehicle: saline
[18] = dose: 50.0 mg/kg/injection, schedule: Q01DX009 (ip), vehicle: saline

Measured: T/C

CC(NC(=O)C(Cc1ccc(O)cc1)NC(=O)C(C)NC(=O)OCc1ccccc1)C(=O)O (stereo not drawn) (Cbz-Ala-Tyr-Ala-OH; configuration not given here)
inactive: [1] 98 % of control | [2] 93 % of control | [3] 96 % of control | [4] 92 % of control

Cc1ccc(Nc2ccc([N+](=O)[O-])cc2[N+](=O)[O-])cc1C
inactive: [5] 98 % of control | [6] 97 % of control | [7] 96 % of control

CCCCCCCCCCCCCCCCCC(=O)Nc1ccn(C2OC(CO)C(O)C2O)c(=O)n1 (centres undefined)
active: [8] 154 % of control | [9] 165 % of control and 203 % of control

CCC1(C)c2cc(C)c(C(C)=O)cc2C(C)(C)C1C (centres undefined)
inactive: [9] 107 % of control | [1] 99 % of control

CCCCCCCC(O)CCC (centres undefined)
inactive: [5] 105 % of control | [6] 97 % of control | [7] 93 % of control

S=C([S][Sn]([c]1ccccc1)([c]1ccccc1)[c]1ccccc1)N1CCCCC1
inactive: dose: 3.12 mg/kg/injection, schedule: Q01DX009 (ip), vehicle: saline with Tween-80 100 % of control | dose: 6.25 mg/kg/injection, schedule: Q01DX009 (ip), vehicle: saline with Tween-80 107 % of control | [8] 103 % of control | [9] 99 % of control

C(=NC1CCCCC1)c1c[nH]c2ccccc12
inactive: [1] 100 % of control | [2] 97 % of control | [3] 97 % of control

O=P(N1CC1)(N1CC1)N1CC1
inactive: dose: 0.75 mg/kg/injection, schedule: Q01DX009 (ip), vehicle: saline with Tween-80 120 % of control | [10] 110 % of control | [11] 120 % of control

CC(C)(C)NC/C(=C\c1ccccc1)C(=O)c1ccccc1
inactive: dose: 6.25 mg/kg/injection, schedule: Q04DX003 (ip), vehicle: saline with Tween-80 100 % of control | [12] 96 % of control | dose: 12.5 mg/kg/injection, schedule: Q04DX003 (ip), vehicle: saline with Tween-80 98 % of control | [13] 96 % of control | dose: 25.0 mg/kg/injection, schedule: Q04DX003 (ip), vehicle: saline with Tween-80 97 % of control and 102 % of control

CC(C)CCC[C@@H](C)[C@H]1CC[C@H]2[C@@H]3CC=C4C[C@@H](O)CC[C@]4(C)[C@H]3CC[C@]12C
inactive: dose: 100.0 mg/kg/injection, schedule: Q01DX009 (ip), vehicle: other 98 % of control | dose: 200.0 mg/kg/injection, schedule: Q01DX009 (ip), vehicle: other 114 % of control

CCc1ccc(NC(=O)C(c2ccccc2)c2ccccc2)cc1
inactive: [8] 89 % of control | [9] 86 % of control

Clc1ccc2sc3c(c2c1)CCNC3
inactive: [12] 94 % of control | [13] 111 % of control | dose: 50.0 mg/kg/injection, schedule: Q01DX009 (ip), vehicle: Klucel (hydroxypropylcellulose) (HPC) 111 % of control | [5] 105 % of control

CCOc1ccc(NC(=O)C(C)O)cc1 (centres undefined)
inactive: [2] 97 % of control | [3] 97 % of control | [4] 91 % of control

C[N+]1=CN(c2ccc(Cl)cc2)Cc2cc(Cl)ccc21
inactive: [5] 88 % of control | dose: 100.0 mg/kg/injection, schedule: Q04DX003 (ip), vehicle: Klucel (hydroxypropylcellulose) (HPC) 88 % of control | [6] 86 % of control | dose: 200.0 mg/kg/injection, schedule: Q04DX003 (ip), vehicle: Klucel (hydroxypropylcellulose) (HPC) 102 % of control | [7] 102 % of control | dose: 400.0 mg/kg/injection, schedule: Q04DX003 (ip), vehicle: Klucel (hydroxypropylcellulose) (HPC) 100 % of control

CC(/C=N/N=C(N)N)=N\NC(N)=S
inactive: dose: 50.0 mg/kg/injection, schedule: Q01DX009 (ip), vehicle: distilled water + Tween-80 105 % of control | dose: 100.0 mg/kg/injection, schedule: Q01DX009 (ip), vehicle: distilled water + Tween-80 94 % of control

O=C(Nc1ccc(F)cc1)Nc1ccc(Cl)cc1
inactive: [2] 89 % of control | [3] 89 % of control

CC(CN1c2ccccc2Sc2cccnc21)N(C)C (centres undefined)
inactive: [14] 97 % of control | [15] 107 % of control | [16] 112 % of control | [17] 109 % of control | [18] 100 % of control

CN(C)CC/C=C1/c2ccccc2COc2ccccc21
inactive: [14] 112 % of control | [15] 102 % of control | [16] 105 % of control | [17] 112 % of control | [18] 105 % of control

CNC(=O)Nc1ccc(C)c(Cl)c1
inactive: [5] 105 % of control | [6] 91 % of control

O=C(O)c1cccc(S(=O)(=O)N(CCO)CCO)c1
inactive: [16] 95 % of control | [17] 97 % of control | [1] 91 % of control | [18] 92 % of control

CCCCCCCCCCCCCCCCOc1ccc(C(=O)CC(=O)OC)cc1
inactive: [5] 105 % of control | [6] 94 % of control

OC(C(c1ccccc1)c1ccccn1)(C(F)(F)F)C(F)(F)F (centres undefined)
inactive: dose: 66.0 mg/kg/injection, schedule: Q04DX003 (ip), vehicle: saline with Tween-80 112 % of control | [2] 110 % of control | dose: 100.0 mg/kg/injection, schedule: Q04DX003 (ip), vehicle: saline with Tween-80 117 % of control | dose: 150.0 mg/kg/injection, schedule: Q04DX003 (ip), vehicle: saline with Tween-80 115 % of control | [3] 112 % of control | [4] 105 % of control

CCOc1ccccc1NC(=O)COc1ccc(Cl)cc1
inactive: [5] 106 % of control | [6] 96 % of control | [7] 100 % of control

CN(C)CC/C=C1\c2ccccc2Sc2ccc(C(F)(F)F)cc21
inactive: dose: 0.19 mg/kg/injection, schedule: Q01DX009 (ip), vehicle: saline 105 % of control | dose: 0.39 mg/kg/injection, schedule: Q01DX009 (ip), vehicle: saline 122 % of control | dose: 0.78 mg/kg/injection, schedule: Q01DX009 (ip), vehicle: saline 111 % of control | dose: 1.56 mg/kg/injection, schedule: Q01DX009 (ip), vehicle: saline 108 % of control | [14] 105 % of control | dose: 6.12 mg/kg/injection, schedule: Q01DX009 (ip), vehicle: saline 90 % of control

CCCCCCCCCCCCCCCC[N+](C)(C)C
inactive: dose: 0.5 mg/kg/injection, schedule: Q04DX003 (ip), vehicle: saline 95 % of control | [10] 93 % of control | dose: 1.0 mg/kg/injection, schedule: Q04DX003 (ip), vehicle: saline 95 % of control | dose: 1.25 mg/kg/injection, schedule: Q01DX009 (ip), vehicle: saline with Tween-80 102 % of control | [11] 93 % of control | dose: 2.0 mg/kg/injection, schedule: Q04DX003 (ip), vehicle: saline 95 % of control | dose: 2.5 mg/kg/injection, schedule: Q01DX009 (ip), vehicle: saline with Tween-80 107 % of control | dose: 2.75 mg/kg/injection, schedule: Q01DX009 (ip), vehicle: saline 93 % of control | dose: 4.0 mg/kg/injection, schedule: Q01DX009 (ip), vehicle: saline 91 % of control | dose: 5.0 mg/kg/injection, schedule: Q01DX009 (ip), vehicle: saline with Tween-80 91 % of control | dose: 5.5 mg/kg/injection, schedule: Q01DX009 (ip), vehicle: saline 93 % of control

CC#CCOCC(O)CO (centres undefined)
inactive: dose: 12.5 mg/kg/injection, schedule: Q01DX009 (ip), vehicle: water 105 % of control | dose: 25.0 mg/kg/injection, schedule: Q01DX009 (ip), vehicle: water 93 % of control | dose: 50.0 mg/kg/injection, schedule: Q01DX009 (ip), vehicle: water 113 % of control | dose: 100.0 mg/kg/injection, schedule: Q01DX009 (ip), vehicle: water 114 % of control

Cc1ccc(Oc2ccc3cc[n+](C)cc3c2)cc1
inactive: [15] 98 % of control | [16] 100 % of control | [17] 86 % of control

CCC[CH2][Ge]([Cl])([Cl])[CH2]CCC
inactive: [12] 100 % of control | [13] 90 % of control

Ic1ccccc1C[N+]12CN3CN(CN(C3)C1)C2
inactive: [1] 97 % of control | [2] 94 % of control | [3] 105 % of control

O=[N+]([O-])c1ccc(Oc2ccc(Cl)cc2)cc1
inactive: [5] 93 % of control | [6] 93 % of control | [7] 100 % of control
